Source: patent US11938114B2, “Bacterial efflux pump inhibitors” (priority 2017, dated 2024)
Where a name gives a salt, the structure may show the parent alone. Marks after values point to notes of the source that are not given here.

Assays:
[1] = tested on: P. aeruginosa ATCC 27853; assay: Standard EPI assay: MIC of test antibiotic (levofloxacin, cefepime) in absence and presence of EPI; format: cell-based, Pseudomonas aeruginosa; conditions: for Enhanced Activity in P. aeruginosa (fold enhancement of antibiotic activity): levofloxacin as antibiotic, Pseudomonas aeruginosa ATCC 27853
Method: (§1) MIC assays were conducted in accordance with Clinical and Laboratory Standards Institute (CLSI) guidelines for broth microdilution.
(§2) The EPI assay for the purposes of these studies represents a MIC assay in which the MIC of the antibiotic against the bacteria is tested in the presence of an experimental efflux pump inhibitor (EPI). […] Using serial dilutions of the EPI, its enhancement of antibiotic activity was then evaluated. […] For the evaluation of the efficacy of an EPI against bacteria that were pre-exposed to an antibiotic, the inoculum of bacteria that used was developed from a bacterial culture isolated as a single colony following exposure at […] the MIC of the antibiotic (so as to induce efflux pump expression), was to be used in combination with the EPI.
(§3) The MIC of the test antibiotic is determined in the absence and presence of sub-inhibitory concentrations of the EPI. Initially, the sub-inhibitory concentration used was ½×MIC of the EPI. […] Similar methodology was employed to examine the synergy with Escherichia coli ATCC 25922 in the presence of varied concentrations of these EPIs using clarithromycin as the antibiotic.

[2] = tested on: Escherichia coli ATC 25922; assay: Bacterial EPI assay: MIC of clarithromycin in the presence of EPI; format: cell-based; conditions: clarithromycin as antibiotic
Method: as §1, §2, §3

[3] = tested on: P. aeruginosa ATCC 27853; assay: Intrinsic MIC assay (CLSI broth microdilution); format: cell-based; conditions: Pseudomonas aeruginosa, ATCC27853, read-out: intrinsic MIC of the EPI
Method: as §1
The intrinsic MIC of the experimental EPIs was tested with the method described. The 2-fold serial dilution begin with 100 μg/mL of tested compound in the first column of the 96-well plates.
The following Gram-negative bacterial strains were included in these assays: • Escherichia coli ATCC 25922 • Klebsiella pneumoniae ATCC 13883 and ATCC 10031 • Pseudomonas aeruginosa ATCC 27853. • Acinetobacter baumannii ATCC 19606 Bacterial EPI Assays Tier 1 Testing

[4] = tested on: P. aeruginosa ATCC 27853 pre-exposed to cefepime; assay: Pre-exposure bacterial EPI assay; format: cell-based, Pseudomonas aeruginosa
Method: as §2
The principle underlying this pre-exposure is that exposure of the bacteria to sub-inhibitory concentrations of the test antibiotic will induce expression of efflux pumps, if any, and may represent the scenario in vivo more accurately.

[5] = tested on: P. aeruginosa [ATCC 27853]; assay: Mouse septicemia model of infection; format: in vivo, Pseudomonas aeruginosa; conditions: mice, Experiment #489, cefepime, 10 mg/ml b.i.d.
Method: A general method for the in vivo assessment of bacterial EPIs is complicated by the fact that that both the antibiotic and the EPI need to be present for synergy to be achieved. A general method was discovered that has proven to be effective in establishing the relative efficacy of bacterial EPIs in a mouse septicemia model. The bacterial EPI is administered initially intravenously to mice with septicemia, followed 5 minutes later by the intravenous administration or oral administration of the antibiotic. A second administration of the EPI is then administered subcutaneously after an additional 5 minutes to act as a booster, followed by the final administration of the antibiotic either intravenously or orally after the second administration of the EPI. […] In a few instances, a second regiment of both EPI and antibiotic as administered on day 1 was required after 24 hours to affect cures.
Determination of the in vivo efficacy of bacterial efflux pump inhibitors (EPIs) can be efficiently determined using a mouse septicemia model of infection. The systemic infection is initiated by a 500 ul intraperitoneal injection of an inoculum containing bacteria (such as P. aeruginosa [ATCC 27853]) at a concentration of approximately 5×10^5 cells in 5% mucin in Swiss Webster female mice. […]

[6] = P. aeruginosa ATCC 27853, 6.25 μg/mL of the EPI

Cl.Cl.NC[C@@H]1CNC(CNC(=O)c2cc(-c3ccc(C(F)(F)F)cc3)cc(-c3ccc(C(F)(F)F)cc3)c2)C1 (stereo in doubt) [Example 9, N-(((2R,4R)-4-(Aminomethyl)pyrrolidin-2-yl)methyl)-4,4″-bis(trifluoromethyl)-[1,1′:3′,1″-terphenyl]-5′-carboxamide hydrochloride salt]
Enhanced Activity in P. aeruginosa (fold enhancement of antibiotic activity) ([1]; EPI at 12.5 μg): 4x/12.5 μg

Cl.Cl.N[C@@H]1CN[C@H](CNC(=O)c2cc(-c3ccc(F)cc3)cc(-c3ccc(F)cc3)c2)C1 [Example 1, N-(((2S, 4S)-4-aminopyrrolidin-2-yl)methyl)-4,4″-difluoro-[1, 1′:3′, 1′-terphenyl]-5′-carboxamide dihydrochloride]
Enhanced Activity in E. coli (fold enhancement of antibiotic activity) ([2]; EPI at 6.25 μg): 64x/6.25 μg | Enhanced Activity in P. aeruginosa (fold enhancement of antibiotic activity) ([1]; EPI at 6.25 μg): 2x/6.25 μg

CC(C)(C(=O)NC[C@@H]1C[C@H](N)CN1)c1cc(-c2ccc(F)cc2)cc(-c2ccc(F)cc2)c1.Cl.Cl [Example 2]
Enhanced Activity in E. coli (fold enhancement of antibiotic activity) ([2]; EPI at 6.25 μg): 8x/6.25 μg

CC(C)(N)C1CN[C@H](CNC(=O)c2cc(-c3ccc(F)cc3)cc(-c3ccc(F)cc3)c2)C1.Cl.Cl (stereo partly drawn) [Example 3, N-(((2S)-4-(2-aminopropan-2-yl)pyrrolidin-2-yl)methyl)-4,4″-difluoro-[1,1′:3′, 1″-terphenyl]-5′-carboxamide dihydrochloride]
Enhanced Activity in E. coli (fold enhancement of antibiotic activity) ([2]; EPI at 12.5 μg): 1024x/12.5 μg | Enhanced Activity in P. aeruginosa (fold enhancement of antibiotic activity) ([1]; EPI at 12.5 μg): 32x/12.5 μg

Cl.Cl.NC[C@@H]1CN[C@H](CNC(=O)c2cc(-c3ccc(F)cc3)cc(-c3ccc(F)cc3)c2)C1 [Example 4, N-(((2S,4R)-4-(aminomethyl)pyrrolidin-2-yl)methyl)-4,4″-difluoro-[1,1′:3′,1″-terphenyl]-5′-carboxamide dihydrochloride]
Enhanced Activity in E. coli (fold enhancement of antibiotic activity) ([2]; EPI at 3.125 μg): 512x/3.125 μg | MIC of levofloxacin in the presence of EPI ([1]; P. aeruginosa ATCC 27853, 6.25 μg/mL (½×MIC) of the EPI): 0.016 µg/mL | MIC of cefepime in the presence of EPI [1, 6]: 0.125 µg/mL | decrease of the MIC of cefepime relative to absence of EPI [1, 6]: 16 fold | reduction of the MIC of levofloxacin relative to absence of EPI [1, 6]: 64 fold | Enhanced Activity in P. aeruginosa (fold enhancement of antibiotic activity) ([1]; EPI at 6.25 μg): 64x/6.25 μg | MIC [3]: 12.5 µg/mL | MIC of cefepime against cefepime-exposed P. aeruginosa in the presence of EPI ([4]; 6.25 μg/mL of the EPI): 0.25 µg/mL | reduction of MIC of cefepime against cefepime-exposed P. aeruginosa ([4]; 6.25 μg/mL of the EPI): 64 fold | % Survival (72 hr) Antibiotic + EPI ([5]; 250 ul + Example 4, 2.0 mg/ml b.i.d.): 100%

Cl.Cl.NC[C@H]1CN[C@H](CNC(=O)c2cc(-c3ccc(F)cc3)cc(-c3ccc(F)cc3)c2)C1 [Example 5, N-(((2S,4S)-4-(aminomethyl)pyrrolidin-2-yl)methyl)-4,4″-difluoro-[1,1′:3′,1″-terphenyl]-5′-carboxamide dihydrochloride]
Enhanced Activity in E. coli (fold enhancement of antibiotic activity) ([2]; EPI at 6.25 μg): 1024x/6.25 μg | Enhanced Activity in P. aeruginosa (fold enhancement of antibiotic activity) ([1]; EPI at 6.25 μg): 32x/6.25 μg

Cl.Cl.NC[C@@H]1CN[C@H](COc2cc(-c3ccc(F)cc3)cc(-c3ccc(F)cc3)c2)C1 [Example 6, ((3R,5S)-5-(((4,4″-difluoro-[1,1′:3′,1″-terphenyl]-5′-yl)oxy)methyl)pyrrolidin-3-yl)methanamine dihydrochloride]
Enhanced Activity in E. coli (fold enhancement of antibiotic activity) ([2]; EPI at 3.125 μg): 32x/3.125 μg | Enhanced Activity in P. aeruginosa (fold enhancement of antibiotic activity) ([1]; EPI at 6.25 μg): 1x/6.25 μg

Cl.Cl.NC[C@H]1CN[C@H](COc2cc(-c3ccc(F)cc3)cc(-c3ccc(F)cc3)c2)C1 [Example 7]
Enhanced Activity in E. coli (fold enhancement of antibiotic activity) ([2]; EPI at 3.125 μg): 64x/3.125 μg | Enhanced Activity in P. aeruginosa (fold enhancement of antibiotic activity) ([1]; EPI at 6.25 μg): 2x/6.25 μg

NC[C@@H]1C[C@H](Oc2cc(-c3ccc(F)cc3)cc(-c3ccc(F)cc3)c2)CN1 [Example 8, ((2S,4S)-4-((4,4″-difluoro-[1,1′:3′,1″-terphenyl]-5′-yl)oxy)pyrrolidin-2-yl)methanamine]
Enhanced Activity in E. coli (fold enhancement of antibiotic activity) ([2]; EPI at 6.25 μg): 2x/6.25 μg | Enhanced Activity in P. aeruginosa (fold enhancement of antibiotic activity) ([1]; EPI at 12.5 μg): 1x/12.5 μg

CC(C)(C(=O)NC[C@@H]1C[C@H](CN)CN1)c1cc(-c2ccc(F)cc2)cc(-c2ccc(F)cc2)c1 [Example 10, N-(((2S,4R)-4-(aminomethyl)pyrrolidin-2-yl)methyl)-2-(4,4″-difluoro-[1,1′:3′,1″-terphenyl]-5′-yl)-2-methylpropanamide hydrochloride salt]
Enhanced Activity in E. coli (fold enhancement of antibiotic activity) ([2]; EPI at 6.25 μg): 512x/6.25 μg

CN1C[C@H](CN)C[C@H]1CNC(=O)c1cc(-c2ccc(F)cc2)cc(-c2ccc(F)cc2)c1 [Example 11, N-(((2S,4S)-4-(aminomethyl)-1-methylpyrrolidin-2-yl)methyl)-4,4″-difluoro-[1,1′:3′,1″-terphenyl]-5′-carboxamide hydrochloride salt]
Enhanced Activity in E. coli (fold enhancement of antibiotic activity) ([2]; EPI at 6.25 μg): 128x/6.25 μg

CN(C)C[C@H]1CN[C@H](CNC(=O)c2cc(-c3ccc(F)cc3)cc(-c3ccc(F)cc3)c2)C1 [Example 12, N-(((2S,4R)-4-((dimethylamino)methyl)pyrrolidin-2-yl)methyl)-4,4″-difluoro-[1,1′:3′,1″-terphenyl]-5′-carboxamide hydrochloride salt]
Enhanced Activity in E. coli (fold enhancement of antibiotic activity) ([2]; EPI at 25 μg): 2x/25 μg

CNC[C@@H]1CN[C@H](CNC(=O)c2cc(-c3ccc(F)cc3)cc(-c3ccc(F)cc3)c2)C1 [Example 14, 4,4″-difluoro-N-(((2S,4R)-4-((methylamino)methyl)pyrrolidin-2-yl)methyl)-[1,1′:3′,1″-terphenyl]-5′-carboxamide hydrochloride salt]
Enhanced Activity in E. coli (fold enhancement of antibiotic activity) ([2]; EPI at 6.25 μg): 64x/6.25 μg | Enhanced Activity in P. aeruginosa (fold enhancement of antibiotic activity) ([1]; EPI at 12.5 μg): 32x/12.5 μg

CO/N=C(\C(=O)N[C@@H]1C(=O)N2C(C(=O)[O-])=C(C[N+]3(C)CCCC3)CS[C@H]12)c1csc(N)n1 [cefepime, reference compound]
increase of MIC of cefepime against pre-exposed versus unexposed P. aeruginosa ([4]; pre-exposed to cefepime, no EPI): 8 fold | % Survival (72 hr) Antibiotic Only ([5]; 250 ul): 0%****
